The text below walks through data of ChEMBL document CHEMBL1128877, “Isosinococuline, a novel antitumor morphinane alkaloid from Cocculus trilobus” (1995).

This test has as its system Mus musculus. Nature of the test: In vivo antitumor activity against P-388 leukemia in mice was determined at 25 mg/kg/day level. In kind it is functional.

On to `COC1=C2C(N)Cc3cc(OC)c(O)cc3C2C[C@H](O)[C@@H]1O` (stereo partly specified), for which the T/C was 146%.

A word on the T/C: it is the result in the treated group divided by that in the control group, in per cent.
